# According to ChEMBL document CHEMBL3046635, “Synthesis and Herbicidal Activity of New Pyrazole-4-carboxamide Derivatives” (J Pestic Sci, 2004):
# Calls of active or inactive are those of the source.
# Experiments:
# [1] = test system: Elatine triandra; assay: Post-emergence herbicidal activity against Elatine triandra assessed as bleaching of stem/leaf parts; assay type: functional, organism-based; note: test concentration or dose not given here
# [2] = test system: Lindernia procumbens; assay: Pre-emergence herbicidal activity against Lindernia procumbens assessed as bleaching of stem/leaf parts; assay type: functional, organism-based
# [3] = test system: Ammannia multiflora; assay: Post-emergence herbicidal activity against Ammannia multiflora assessed as bleaching of stem/leaf parts; assay type: functional, organism-based; note: test concentration or dose not given here
# [4] = test system: Elatine triandra; assay: Pre-emergence herbicidal activity against Elatine triandra assessed as bleaching of stem/leaf parts; assay type: functional, organism-based
# [5] = test system: Ammannia multiflora; assay: Pre-emergence herbicidal activity against Ammannia multiflora assessed as bleaching of stem/leaf parts; assay type: functional, organism-based
# [6] = test system: Schoenoplectiella juncoides; assay: Pre-emergence herbicidal activity against Schoenoplectiella juncoides at 500 g a.i/ha measured after 14 days; assay type: functional, organism-based
# [7] = test system: Schoenoplectiella juncoides; assay: Pre-emergence herbicidal activity against Schoenoplectiella juncoides assessed as bleaching of stem/leaf parts; assay type: functional, organism-based
# [8] = test system: Elatine triandra; assay: Pre-emergence herbicidal activity against Elatine triandra at 500 g a.i/ha measured after 14 days; assay type: functional, organism-based
# [9] = test system: Eleocharis acicularis; assay: Post-emergence herbicidal activity against Eleocharis acicularis assessed as bleaching of stem/leaf parts; assay type: functional, organism-based; note: test concentration or dose not given here
# [10] = test system: Eleocharis acicularis; assay: Pre-emergence herbicidal activity against Eleocharis acicularis assessed as bleaching of stem/leaf parts; assay type: functional, organism-based
# [11] = test system: Cyperus difformis; assay: Pre-emergence herbicidal activity against Cyperus difformis at 500 g a.i/ha measured after 14 days; assay type: functional, organism-based
# [12] = test system: Pontederia vaginalis; assay: Pre-emergence herbicidal activity against Monochoria vaginalis at 100 g a.i/ha measured after 14 days; assay type: functional, organism-based
# [13] = test system: Schoenoplectiella juncoides; assay: Post-emergence herbicidal activity against Schoenoplectiella juncoides assessed as bleaching of stem/leaf parts; assay type: functional, organism-based; note: test concentration or dose not given here
# [14] = test system: Pontederia vaginalis; assay: Pre-emergence herbicidal activity against Monochoria vaginalis assessed as bleaching of stem/leaf parts; assay type: functional, organism-based
# [15] = test system: Rotala indica; assay: Pre-emergence herbicidal activity against Rotala indica at 500 g a.i/ha measured after 14 days; assay type: functional, organism-based
# [16] = test system: Lindernia procumbens; assay: Post-emergence herbicidal activity against Lindernia procumbens assessed as bleaching of stem/leaf parts; assay type: functional, organism-based; note: test concentration or dose not given here
# [17] = test system: Oryza sativa; assay: Phytotoxicity against Oryza sativa cv. Koshihikari (rice) at 500 g a.i/ha measured after 14 days; assay type: organism-based; details: in vivo, 336 h
# [18] = test system: Cyperus difformis; assay: Pre-emergence herbicidal activity against Cyperus difformis assessed as bleaching of stem/leaf parts; assay type: functional, organism-based
# [19] = test system: Ammannia multiflora; assay: Pre-emergence herbicidal activity against Ammannia multiflora at 100 g a.i/ha measured after 14 days; assay type: functional, organism-based
# [20] = test system: Rotala indica; assay: Pre-emergence herbicidal activity against Rotala indica at 100 g a.i/ha measured after 14 days; assay type: functional, organism-based
# [21] = test system: Elatine triandra; assay: Pre-emergence herbicidal activity against Elatine triandra at 100 g a.i/ha measured after 14 days; assay type: functional, organism-based
# [22] = test system: Ammannia multiflora; assay: Pre-emergence herbicidal activity against Ammannia multiflora at 500 g a.i/ha measured after 14 days; assay type: functional, organism-based
# [23] = test system: Lindernia procumbens; assay: Pre-emergence herbicidal activity against Lindernia procumbens at 100 g a.i/ha measured after 14 days; assay type: functional, organism-based
# [24] = test system: Echinochloa oryzicola; assay: Pre-emergence herbicidal activity against Echinochloa oryzicola assessed as bleaching of stem/leaf parts; assay type: functional, organism-based
# [25] = test system: Rotala indica; assay: Pre-emergence herbicidal activity against Rotala indica assessed as bleaching of stem/leaf parts; assay type: functional, organism-based
# [26] = test system: Schoenoplectiella juncoides; assay: Pre-emergence herbicidal activity against Schoenoplectiella juncoides at 100 g a.i/ha measured after 14 days; assay type: functional, organism-based
# [27] = test system: Echinochloa oryzicola; assay: Post-emergence herbicidal activity against Echinochloa oryzicola assessed as bleaching of stem/leaf parts; assay type: functional, organism-based; note: test concentration or dose not given here
# [28] = test system: Lindernia procumbens; assay: Pre-emergence herbicidal activity against Lindernia procumbens at 500 g a.i/ha measured after 14 days; assay type: functional, organism-based
# [29] = test system: Cyperus difformis; assay: Pre-emergence herbicidal activity against Cyperus difformis at 100 g a.i/ha measured after 14 days; assay type: functional, organism-based
# [30] = test system: Echinochloa oryzicola; assay: Pre-emergence herbicidal activity against Echinochloa oryzicola at 500 g a.i/ha measured after 14 days; assay type: functional, organism-based
# [31] = test system: Rotala indica; assay: Post-emergence herbicidal activity against Rotala indica assessed as bleaching of stem/leaf parts; assay type: functional, organism-based; note: test concentration or dose not given here
# [32] = test system: Oryza sativa; assay: Phytotoxicity against Oryza sativa cv. Koshihikari (rice) at 100 g a.i/ha measured after 14 days; assay type: organism-based; details: in vivo, 336 h
# [33] = test system: Pontederia vaginalis; assay: Post-emergence herbicidal activity against Monochoria vaginalis assessed as bleaching of stem/leaf parts; assay type: functional, organism-based; note: test concentration or dose not given here
# [34] = test system: Cyperus difformis; assay: Post-emergence herbicidal activity against Cyperus difformis assessed as bleaching of stem/leaf parts; assay type: functional, organism-based; note: test concentration or dose not given here
# [35] = test system: Pontederia vaginalis; assay: Pre-emergence herbicidal activity against Monochoria vaginalis at 500 g a.i/ha measured after 14 days; assay type: functional, organism-based
# [36] = test system: Echinochloa oryzicola; assay: Pre-emergence herbicidal activity against Echinochloa oryzicola at 100 g a.i/ha measured after 14 days; assay type: functional, organism-based
# [37] = test system: Eleocharis acicularis; assay: Pre-emergence herbicidal activity against Eleocharis acicularis at 100 g a.i/ha measured after 14 days; assay type: functional, organism-based
# [38] = test system: Eleocharis acicularis; assay: Pre-emergence herbicidal activity against Eleocharis acicularis at 500 g a.i/ha measured after 14 days; assay type: functional, organism-based
Structure (SMILES),Activity [1],Activity [2],Activity [3],Activity [4],Activity [5],Activity [6],Activity [7],Activity [8],Activity [9],Activity [10],Activity [11],Activity [13],Activity [14],Activity [15],Activity [16],Activity [17],Activity [18],Activity [22],Activity [24],Activity [25],also measured
CCONC(=O)c1cn(C(F)F)nc1OCc1cccc(C(F)(F)F)c1,Active,Active,Active,Active,Active,Active,Active,Active,Active,Active,Active,Active,Active,Active,Active,Non-toxic,Active,Active,Active,Active,Activity [12]: Active; Activity [19]: Active; Activity [20]: Active; Activity [21]: Active; Activity [23]: Active; Activity [26]: Active; Activity [27]: Active; Activity [28]: Active; Activity [29]: Active; Activity [30]: Active; Activity [31]: Active; Activity [32]: Non-toxic; Activity [33]: Active; Activity [34]: Active; Activity [35]: Active; Activity [36]: inactive
CCONC(=O)c1cn(C)nc1OCc1cccc(C(F)(F)F)c1,Active,Active,Active,Active,Active,Active,Active,Active,Active,Active,Active,Active,Active,Active,Active,Non-toxic,Active,Active,Active,Active,Activity [37]: Active; Activity [12]: Active; Activity [19]: Active; Activity [20]: Active; Activity [21]: Active; Activity [23]: Active; Activity [38]: Active; Activity [26]: Active; Activity [27]: Active; Activity [28]: Active; Activity [29]: Active; Activity [30]: Active; Activity [31]: Active; Activity [32]: Non-toxic; Activity [33]: Active; Activity [34]: Active; Activity [35]: Active; Activity [36]: Active
Cn1cc(C(=O)Nc2ccc(Cl)cc2Cl)c(OCc2cccc(C(F)(F)F)c2)n1,Active,Active,Active,Active,Active,Active,Active,Active,Active,Active,Active,Active,Active,Active,Active,Toxic,Active,Active,Active,Active,Activity [37]: Active; Activity [12]: Active; Activity [19]: Active; Activity [20]: Active; Activity [21]: Active; Activity [23]: Active; Activity [38]: Active; Activity [26]: inactive; Activity [27]: Active; Activity [28]: Active; Activity [29]: Active; Activity [30]: Active; Activity [31]: Active; Activity [32]: Non-toxic; Activity [33]: Active; Activity [34]: Active; Activity [35]: Active; Activity [36]: inactive
CONC(=O)c1cn(C)nc1OCc1cccc(C(F)(F)F)c1,Active,Active,Active,Active,Active,Active,Active,Active,Active,Active,Active,Active,Active,Active,Active,Non-toxic,Active,Active,Active,Active,Activity [37]: inactive; Activity [12]: Active; Activity [19]: Active; Activity [20]: Active; Activity [21]: Active; Activity [23]: Active; Activity [38]: Active; Activity [26]: Active; Activity [27]: Active; Activity [28]: Active; Activity [29]: Active; Activity [30]: Active; Activity [31]: Active; Activity [32]: Non-toxic; Activity [33]: Active; Activity [34]: Active; Activity [35]: Active; Activity [36]: Active
Cn1cc(C(=O)NCc2cccc(Cl)c2)c(OCc2cccc(C(F)(F)F)c2)n1,Active,Active,Active,Active,Active,inactive,Active,inactive,Active,Active,inactive,Active,Active,inactive,Active,Non-toxic,Active,inactive,Active,Active,Activity [38]: inactive; Activity [27]: Active; Activity [28]: inactive; Activity [30]: inactive; Activity [31]: Active; Activity [33]: Active; Activity [34]: Active; Activity [35]: inactive
Cn1nc(OCc2cccc(C(F)(F)F)c2)c(C(=O)NOc2ccc(F)cc2F)c1Cl,Active,Active,Active,Active,Active,inactive,Active,inactive,Active,Active,inactive,Active,Active,inactive,Active,Non-toxic,Active,inactive,Active,Active,Activity [38]: inactive; Activity [27]: Active; Activity [28]: inactive; Activity [30]: inactive; Activity [31]: Active; Activity [33]: Active; Activity [34]: Active; Activity [35]: inactive
Cn1cc(C(=O)Nc2ccc(C(F)(F)F)cc2)c(OCc2cccc(C(F)(F)F)c2)n1,Active,Active,Active,Active,Active,inactive,Active,Active,Active,Active,inactive,Active,Active,Active,Active,Non-toxic,Active,Active,Active,Active,Activity [38]: Active; Activity [27]: Active; Activity [28]: Active; Activity [30]: inactive; Activity [31]: Active; Activity [33]: Active; Activity [34]: Active; Activity [35]: Active
